According to paper PMC7116157 (Nature chemical biology, 2019):

Target: T1, Cleavage and Polyadenylation Specificity Factor 3 (CPSF3) (Homo sapiens, UniProt Q9UKF6)
T1 sequence (Q9UKF6 1-459): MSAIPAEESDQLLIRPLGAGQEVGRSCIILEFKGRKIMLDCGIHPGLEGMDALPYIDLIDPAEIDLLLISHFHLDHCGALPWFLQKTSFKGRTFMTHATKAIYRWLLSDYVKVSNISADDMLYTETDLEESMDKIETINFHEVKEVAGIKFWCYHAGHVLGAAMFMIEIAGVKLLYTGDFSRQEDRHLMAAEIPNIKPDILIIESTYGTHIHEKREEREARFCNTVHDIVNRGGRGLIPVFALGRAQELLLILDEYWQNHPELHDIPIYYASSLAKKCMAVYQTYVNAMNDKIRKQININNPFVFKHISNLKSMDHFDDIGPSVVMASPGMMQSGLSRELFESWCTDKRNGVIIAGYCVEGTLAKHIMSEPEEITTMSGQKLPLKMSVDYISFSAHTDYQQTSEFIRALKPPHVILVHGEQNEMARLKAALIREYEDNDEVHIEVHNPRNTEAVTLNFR
Experiment: […] Å co-crystal structure
Type: binding

CN1CCN(CCOc2c(Cl)cc(C(=O)N[C@@H](Cc3ccccc3)C(=O)O)c(O)c2Cl)CC1 [compound 2]
Kd: 370 nM
